Assay results from PubChem BioAssay (NCI).
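Abbreviation: GI50, concentration required for 50% inhibition of growth. At the TGI there is no net growth.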

Experiments:
Test in all cases: NCI anticancer screen, dose series, 384-well format
CAKI-1 renal = tested on: CAKI-1 renal
HOP-62 NSCLC = tested on: HOP-62 NSCLC
MOLT-4 leukemia = tested on: MOLT-4 leukemia
SK-MEL-5 melanoma = tested on: SK-MEL-5 melanoma
NCI-H460 NSCLC = tested on: NCI-H460 NSCLC
SF-268 CNS = tested on: SF-268 CNS
UACC-257 melanoma = tested on: UACC-257 melanoma
SF-295 CNS = tested on: SF-295 CNS
DU-145 prostate = tested on: DU-145 prostate
TK-10 renal = tested on: TK-10 renal
EKVX NSCLC = tested on: EKVX NSCLC
COLO 205 colon = tested on: COLO 205 colon
BT-549 breast = tested on: BT-549 breast
ACHN renal = tested on: ACHN renal
HS 578T breast = tested on: HS 578T breast
A549 NSCLC = tested on: A549 NSCLC
MDA-MB-231 breast = tested on: MDA-MB-231 breast
NCI-H322M lung = tested on: NCI-H322M lung
SNB-75 CNS = tested on: SNB-75 CNS
MCF7 breast = tested on: MCF7 breast
HL-60(TB) leukemia = tested on: HL-60(TB) leukemia
UO-31 renal = tested on: UO-31 renal
NCI-H226 lung = tested on: NCI-H226 lung
KM12 colon = tested on: KM12 colon
SW-620 colon = tested on: SW-620 colon
MDA-MB-435 melanoma = tested on: MDA-MB-435 melanoma
OVCAR-3 ovarian = tested on: OVCAR-3 ovarian
NCI-H522 lung = tested on: NCI-H522 lung
PC-3 prostate = tested on: PC-3 prostate
HOP-92 NSCLC = tested on: HOP-92 NSCLC
OVCAR-4 ovarian = tested on: OVCAR-4 ovarian
K-562 leukemia = tested on: K-562 leukemia
OVCAR-5 ovarian = tested on: OVCAR-5 ovarian
IGROV1 ovarian = tested on: IGROV1 ovarian
NCI/ADR-RES ovarian = tested on: NCI/ADR-RES ovarian
LOX IMVI melanoma = tested on: LOX IMVI melanoma
SF-539 CNS = tested on: SF-539 CNS
MDA-MB-468 breast = tested on: MDA-MB-468 breast
SK-MEL-28 melanoma = tested on: SK-MEL-28 melanoma
T-47D breast = tested on: T-47D breast
HCT-15 colon = tested on: HCT-15 colon
U251 glioblastoma = tested on: U251 glioblastoma
SK-OV-3 ovarian = tested on: SK-OV-3 ovarian
OVCAR-8 ovarian = tested on: OVCAR-8 ovarian
MALME-3M melanoma = tested on: MALME-3M melanoma
HCC-2998 colon = tested on: HCC-2998 colon
A498 renal = tested on: A498 renal
UACC-62 melanoma = tested on: UACC-62 melanoma
M14 melanoma = tested on: M14 melanoma
HT29 colon = tested on: HT29 colon
SN12C renal = tested on: SN12C renal
786-0 renal = tested on: 786-0 renal
RXF 393 renal = tested on: RXF 393 renal
RPMI-8226 leukemia = tested on: RPMI-8226 leukemia
SNB-19 CNS = tested on: SNB-19 CNS
NCI-H23 lung = tested on: NCI-H23 lung
CCRF-CEM leukemia = tested on: CCRF-CEM leukemia
SR leukemia = tested on: SR leukemia

## COc1cc2c(Oc3ccc4[nH]c(C)cc4c3F)ncnc2cc1OCCCN1CCCC1
CAKI-1 renal
  GI50: 1.05 µM
  TGI: 2.36 µM
HOP-62 NSCLC
  GI50: 1.5 µM
  TGI: 2.93 µM
MOLT-4 leukemia
  GI50: 1.38 µM
  TGI: 2.68 µM
SK-MEL-5 melanoma
  GI50: 1.3 µM
  TGI: 2.58 µM
NCI-H460 NSCLC
  GI50: 1.78 µM
  TGI: 3.27 µM
SF-268 CNS
  GI50: 1.66 µM
  TGI: 3.22 µM
UACC-257 melanoma
  GI50: 1.61 µM
  TGI: 2.97 µM
SF-295 CNS
  GI50: 1.73 µM
  TGI: 3.13 µM
DU-145 prostate
  GI50: 1.92 µM
  TGI: 3.77 µM
TK-10 renal
  GI50: 1.76 µM
  TGI: 3.28 µM
EKVX NSCLC
  GI50: 1.16 µM
  TGI: 2.84 µM
COLO 205 colon
  GI50: 1.69 µM
  TGI: 3.35 µM
BT-549 breast
  GI50: 1.04 µM
  TGI: 2.22 µM
ACHN renal
  GI50: 1.2 µM
  TGI: 2.64 µM
HS 578T breast
  GI50: 1.26 µM
  TGI: 2.53 µM
A549 NSCLC
  GI50: 1.46 µM
  TGI: 2.97 µM
MDA-MB-231 breast
  GI50: 1.76 µM
  TGI: 3.53 µM
NCI-H322M lung
  GI50: 1.79 µM
  TGI: 4.56 µM
SNB-75 CNS
  GI50: 1.32 µM
  TGI: 2.74 µM
MCF7 breast
  GI50: 1.4 µM
  TGI: 2.74 µM
HL-60(TB) leukemia
  GI50: 1.93 µM
  TGI: 3.35 µM
UO-31 renal
  GI50: 1.39 µM
  TGI: 2.77 µM
NCI-H226 lung
  GI50: 0.306 µM
  TGI: 1.96 µM
KM12 colon
  GI50: 1.81 µM
  TGI: 3.28 µM
SW-620 colon
  GI50: 1.63 µM
  TGI: 3.1 µM
MDA-MB-435 melanoma
  GI50: 1.77 µM
  TGI: 3.41 µM
OVCAR-3 ovarian
  GI50: 1.63 µM
  TGI: 3.06 µM
NCI-H522 lung
  GI50: 1.55 µM
  TGI: 2.91 µM
PC-3 prostate
  GI50: 1.77 µM
  TGI: 3.3 µM
HOP-92 NSCLC
  GI50: 0.578 µM
  TGI: 1.92 µM
OVCAR-4 ovarian
  GI50: 1.14 µM
  TGI: 2.43 µM
K-562 leukemia
  GI50: 1.13 µM
  TGI: 2.37 µM
OVCAR-5 ovarian
  GI50: 1.39 µM
  TGI: 3.18 µM
IGROV1 ovarian
  GI50: 0.632 µM
  TGI: 1.95 µM
NCI/ADR-RES ovarian
  GI50: 2.35 µM
  TGI: 5.9 µM
LOX IMVI melanoma
  GI50: 1.62 µM
  TGI: 2.99 µM
SF-539 CNS
  GI50: 0.488 µM
  TGI: 1.83 µM
MDA-MB-468 breast
  GI50: 1.04 µM
  TGI: 2.24 µM
SK-MEL-28 melanoma
  GI50: 1.66 µM
  TGI: 3.03 µM
T-47D breast
  GI50: 1.3 µM
  TGI: 2.58 µM
HCT-15 colon
  GI50: 1.21 µM
  TGI: 2.53 µM
U251 glioblastoma
  GI50: 1.58 µM
  TGI: 3 µM
SK-OV-3 ovarian
  GI50: 1.26 µM
  TGI: 2.53 µM
OVCAR-8 ovarian
  GI50: 1.58 µM
  TGI: 2.96 µM
MALME-3M melanoma
  GI50: 1.54 µM
  TGI: 2.88 µM
HCC-2998 colon
  GI50: 1.59 µM
  TGI: 2.97 µM
A498 renal
  GI50: 1.24 µM
  TGI: 2.59 µM
UACC-62 melanoma
  GI50: 1.63 µM
  TGI: 3 µM
M14 melanoma
  GI50: 1.68 µM
  TGI: 3.06 µM
HT29 colon
  GI50: 1.46 µM
  TGI: 2.8 µM
SN12C renal
  GI50: 0.591 µM
  TGI: 2.41 µM
786-0 renal
  GI50: 1.33 µM
  TGI: 2.63 µM
RXF 393 renal
  GI50: 1.38 µM
  TGI: 2.69 µM
RPMI-8226 leukemia
  GI50: 1.61 µM
  TGI: 2.97 µM
SNB-19 CNS
  GI50: 1.57 µM
  TGI: 4.71 µM
NCI-H23 lung
  GI50: 1.15 µM
  TGI: 2.8 µM
CCRF-CEM leukemia
  GI50: 1.63 µM
  TGI: 2.99 µM
SR leukemia
  GI50: 1.56 µM
  TGI: 2.91 µM
